Assay [1] deals with Dihydroorotate dehydrogenase (quinone), mitochondrial (Rattus norvegicus, UniProt Q63707). Put plainly: Inhibitory concentration tested against enzyme dihydroorotate dehydrogenase in rat.
For assay [2], the target named is Dihydroorotate dehydrogenase (quinone), mitochondrial (Mus musculus, UniProt O35435). Put plainly: Inhibitory concentration tested on enzyme dihydroorotate dehydrogenase in mouse.

The IC50 is the concentration at which inhibition is half-maximal. Higher therefore signals weaker potency in that assay.

Dihydroorotate dehydrogenase (quinone), mitochondrial (Rattus norvegicus, UniProt Q63707), sequence (Q63707 whole entry): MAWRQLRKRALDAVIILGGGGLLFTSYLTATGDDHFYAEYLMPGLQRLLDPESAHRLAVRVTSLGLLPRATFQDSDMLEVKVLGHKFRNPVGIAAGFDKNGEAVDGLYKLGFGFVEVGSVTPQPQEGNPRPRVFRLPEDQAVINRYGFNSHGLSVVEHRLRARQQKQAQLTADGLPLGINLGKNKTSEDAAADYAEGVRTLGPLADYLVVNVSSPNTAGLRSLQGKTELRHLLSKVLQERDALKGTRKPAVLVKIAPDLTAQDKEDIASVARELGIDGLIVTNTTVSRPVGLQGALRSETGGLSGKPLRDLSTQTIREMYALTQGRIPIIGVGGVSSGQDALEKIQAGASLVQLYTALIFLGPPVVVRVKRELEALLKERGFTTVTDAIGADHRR
Dihydroorotate dehydrogenase (quinone), mitochondrial (Mus musculus, UniProt O35435), sequence (O35435 whole entry): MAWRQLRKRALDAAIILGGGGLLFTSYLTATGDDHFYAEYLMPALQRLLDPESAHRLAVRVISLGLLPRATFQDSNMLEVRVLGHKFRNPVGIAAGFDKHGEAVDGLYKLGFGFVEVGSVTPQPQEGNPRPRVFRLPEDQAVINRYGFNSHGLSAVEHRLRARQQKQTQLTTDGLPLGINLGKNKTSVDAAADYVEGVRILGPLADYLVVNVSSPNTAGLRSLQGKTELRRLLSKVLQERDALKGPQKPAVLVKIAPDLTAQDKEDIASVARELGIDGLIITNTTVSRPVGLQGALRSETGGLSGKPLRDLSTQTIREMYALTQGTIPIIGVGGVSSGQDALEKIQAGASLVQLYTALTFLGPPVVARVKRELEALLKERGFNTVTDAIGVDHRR

`CN1CCCC1C(=O)C(C#N)C(=O)Nc1ccc(C(F)(F)F)cc1` (centres undefined) [(Z)-2-Cyano-3-hydroxy-3-(1-methyl-pyrrolidin-2-yl)-N-(4-trifluoromethyl-phenyl)-acrylamide]: the IC50 in assay [1] and in assay [2] was above 100 µM each time.

In the case of `N#CC(C(=O)Nc1ccc(C(F)(F)F)cc1)C(=O)c1ccc(C(F)(F)F)cc1` (centres undefined) [2-Cyano-3-hydroxy-3,N-bis-(4-trifluoromethyl-phenyl)-acrylamide], the IC50 in assay [1] and in assay [2] was above 100 µM in each case.

In turn, `CC=CC(=O)C(C#N)C(=O)Nc1ccc(C(F)(F)F)cc1` (centres undefined) gave an IC50 in assay [2] of 0.063 µM.

As to `N#CC(C(=O)Nc1ccccc1C(F)(F)F)C(=O)C1CC1` (centres undefined) [(Z)-2-Cyano-3-cyclopropyl-3-hydroxy-N-(2-trifluoromethyl-phenyl)-acrylamide], the half-maximal inhibitory concentration (IC50) in assay [1] and in assay [2] was above 100 µM throughout.

For `N#CC(C(=O)Nc1ccc(C(F)(F)F)cc1)C(=O)C1CCCN1` (centres undefined) [(Z)-2-Cyano-3-hydroxy-3-pyrrolidin-2-yl-N-(4-trifluoromethyl-phenyl)-acrylamide], the IC50 in assay [1] and in assay [2] was above 100 µM throughout.
